Results reported in US20240335424A1, “COMPOSITIONS AND METHODS FOR TREATING LIPOMA PAIN” (Raziel Therapeutics Ltd., priority 2021, published 2024).
“Also recorded” adds a separate entry of the source.

What was measured:
Type in all cases: in vivo, human
[1] = tested on: Dercum's disease (DD) lipomas; assay: Phase 2b clinical trial: lipoma/nodule height by ultrasound; details: day 84 after injection vs. baseline, compared to placebo
Source text: The clinical trial described herein was a double-blind, randomized, placebo-controlled phase 2b clinical trial for the evaluation of safety and efficacy of Compound 1 (5-(3,6-dibromo-9H-carbazol-9-yl)-N,N,N-trimethylpentan-1-aminium, provided as a chloride salt, also designated Compound 1A), in subjects having Dercum's disease (DD) lipomas. Study Objectives. The primary objective was to evaluate the average percent reduction in lipoma height on day 84 after injection vs. baseline in the treatment group compared to the placebo group. Efficacy was determined by ultrasound assessment of the lipoma/nodule dimensions after treatment vs. baseline. The key secondary objective was assessment of lipoma/nodule associated pain using the Comparative Pain Scale. Safety was assessed by frequency of adverse events and by change-from-baseline values for vital signs, clinical laboratory and ECG. Study Design. […] Dosing was calculated according to lipoma size (diameter) as determined by ultrasound. […] Primary endpoint was the average percent reduction in lipoma/noduleheight on day 84 after injection vs baseline-evaluated by ultrasound in the Compound 1 treatment group compared to the placebo group. Key secondary endpoint was reduction in local pain score per lipoma/nodule on Day 84 vs. baseline as measured by the Comparative Pain Scale. […]

[2] = tested on: Dercum's disease (DD) lipomas; assay: Phase 2b clinical trial: lipoma pain by Comparative Pain Scale; details: for Pain Score: Average per patient, Mean / Pain score: All lipomas, Mean: Comparative Pain Scale 0-10; for Pain score: All lipomas, Mean / Change from baseline in Pain Score: All lipomas, Relative Change from baseline, Mean: per lipoma analysis
Source text: The clinical trial described herein was a double-blind, randomized, placebo-controlled phase 2b clinical trial for the evaluation of safety and efficacy of Compound 1 (5-(3,6-dibromo-9H-carbazol-9-yl)-N,N,N-trimethylpentan-1-aminium, provided as a chloride salt, also designated Compound 1A), in subjects having Dercum's disease (DD) lipomas. Study Objectives. The primary objective was to evaluate the average percent reduction in lipoma height on day 84 after injection vs. baseline in the treatment group compared to the placebo group. Efficacy was determined by ultrasound assessment of the lipoma/nodule dimensions after treatment vs. baseline. The key secondary objective was assessment of lipoma/nodule associated pain using the Comparative Pain Scale. Safety was assessed by frequency of adverse events and by change-from-baseline values for vital signs, clinical laboratory and ECG. Study Design. This was a double blind, multi-center, randomized, placebo-controlled clinical trial in DD subjects having lipomas. A total of 38 DD patients were enrolled into the study. Patients were randomized in approximately a 1:1 ratio into either the intervention or the placebo arm. Twenty (20) subjects, having a total of 125 lipomas, were treated with Compound 1. Eighteen (18) subjects, having a total of 110 lipomas, were treated with placebo. Once the study ended and codes were opened, 84 days after dosing. Subjects received their study treatment on a single occasion in multiple injections. Dosing was calculated according to lipoma size (diameter) as determined by ultrasound. Subjects were dosed in accordance with Table 1. Injections were perpendicular (90°) to injected skin surface and spread randomly, at least 1 cm apart. At least 4 lipomas/nodules, preferably 6, and no more than 8, were injected per subject. Compound 1 dose per injection site was 5 mg, and a distance of 1-3 cm between injection points was maintained, to allow good distribution of Compound 1 within lipoma fat. A maximal dose of up to 240 mg/subject (a total of 48 injections of 5 mg/injection) was allowed in this study and the highest actual tested dose was 200 mg/subject (40 injections into 4-8 lipomas). A total of 20 patients were treated with Compound 1 and a total of 18 patients were treated with placebo. Primary endpoint was the average percent reduction in lipoma/noduleheight on day 84 after injection vs baseline-evaluated by ultrasound in the Compound 1 treatment group compared to the placebo group. Key secondary endpoint was reduction in local pain score per lipoma/nodule on Day 84 vs. baseline as measured by the Comparative Pain Scale. Comparative pain scale ranked the pain from a score from 0 to 10. A score of 0 indicated no pain, a score of 1-3 indicated minor pain, a score of 4-6 indicated moderate pain and a score of 7-10 indicated severe pain. Pain was compared between the intervention (Compound 1) and placebo groups on 2 levels-(1) on the patient level and (2) by lipomas, i.e. comparison between all injected lipomas before and after injection. Study Drug. Compound 1 was administered as a ready to use liquid for injection into subcutaneous fat, supplied in a 1 vial kit. Each vial contains 250 mg Compound 1/5 mL (50 mg/ml) solution Compound 1 in a vehicle comprised of water, propylene glycol and surfactant. The formulation is described in Table 2. Placebo was a solution comprised of vehicle only. Each injection of Compound 1 and placebo contained 0.1 ml. The vehicle was a ready-to-use liquid for injection into subcutaneous fat, supplied in a 1-vial kit. One vial contained 5 mL and had similar composition as the Compound 1 drug product, without the active substance. The components are: Tween-80, propylene glycol, benzyl alcohol, and water. The vehicle was manufactured and packed by […] (Israel) and complies with cGMP requirements. […]

[3] = Phase 2b clinical trial: safety (adverse events, vital signs, clinical laboratory, ECG); details: up to 200 mg/subject, subcutaneous injection into lipomas
Source text: The clinical trial described herein was a double-blind, randomized, placebo-controlled phase 2b clinical trial for the evaluation of safety and efficacy of Compound 1 (5-(3,6-dibromo-9H-carbazol-9-yl)-N,N,N-trimethylpentan-1-aminium, provided as a chloride salt, also designated Compound 1A), in subjects having Dercum's disease (DD) lipomas.
Study Objectives. The primary objective was to evaluate the average percent reduction in lipoma height on day 84 after injection vs. baseline in the treatment group compared to the placebo group. Efficacy was determined by ultrasound assessment of the lipoma/nodule dimensions after treatment vs. baseline. The key secondary objective was assessment of lipoma/nodule associated pain using the Comparative Pain Scale. Safety was assessed by frequency of adverse events and by change-from-baseline values for vital signs, clinical laboratory and ECG.
Study Design. This was a double blind, multi-center, randomized, placebo-controlled clinical trial in DD subjects having lipomas. A total of 38 DD patients were enrolled into the study. Patients were randomized in approximately a 1:1 ratio into either the intervention or the placebo arm. Twenty (20) subjects, having a total of 125 lipomas, were treated with Compound 1. Eighteen (18) subjects, having a total of 110 lipomas, were treated with placebo. Once the study ended and codes were opened, 84 days after dosing.
At least 4 lipomas/nodules, preferably 6, and no more than 8, were injected per subject. Compound 1 dose per injection site was 5 mg, and a distance of 1-3 cm between injection points was maintained, to allow good distribution of Compound 1 within lipoma fat. A maximal dose of up to 240 mg/subject (a total of 48 injections of 5 mg/injection) was allowed in this study and the highest actual tested dose was 200 mg/subject (40 injections into 4-8 lipomas). A total of 20 patients were treated with Compound 1 and a total of 18 patients were treated with placebo.

[4] = Day 84, compared to the placebo group
[5] = Visit 2 - Baseline/Treatment (Day 0), prior to injection
[6] = Visit 5 - Day 28 post treatment
[7] = Visit 6 - Day 56 post treatment
[8] = Visit 7 - Day 84 post treatment

## C[N+](C)(C)CCCCCn1c2ccc(Br)cc2c2cc(Br)ccc21 [Compound 1, 5-(3,6-dibromo-9H-carbazol-9-yl)-N,N,N-trimethylpentan-1-aminium]
[1]
  reduction in lipoma height: not significant
[2]; 84 days after treatment, vs. 36.82% in placebo, P=0.98 as printed
  average pain reduction per patient (by-patient analysis): 56.37%
[2]; 84 days after treatment, vs. 37.50% in placebo, p=0.0004 t-test, p 0.079 mixed model
  average pain reduction per lipoma (all-lipoma analysis): 59.06%
[2]; [4]
  reduction in pain vs. placebo, by-lipoma analysis: significant reduction in pain per lipoma; also recorded: statistically significant reduction in pain
  reduction of pain vs. placebo, per-patient analysis: a trend for reduction of pain
[2]; [5]
  Pain Score: Average per patient, Mean: 4.89
  Pain score: All lipomas, Mean: 4.86
[2]; [6]
  Change from baseline in Pain Score: Average per patient, Relative Change from baseline, Mean: −41.76%
  Pain Score: Average per patient, Mean: 2.82
  Pain score: All lipomas, Mean: 2.72
  Change from baseline in Pain Score: All lipomas, Relative Change from baseline, Mean: −41.55%
[2]; [7]
  Change from baseline in Pain Score: Average per patient, Relative Change from baseline, Mean: −43.53%
  Pain Score: Average per patient, Mean: 2.56
  Pain score: All lipomas, Mean: 2.38
  Change from baseline in Pain Score: All lipomas, Relative Change from baseline, Mean: −46.74%
[2]; [8]
  Change from baseline in Pain Score: Average per patient, Relative Change from baseline, Mean: −56.37%
  Pain Score: Average per patient, Mean: 2.03
  Pain score: All lipomas, Mean: 1.86
  Change from baseline in Pain Score: All lipomas, Relative Change from baseline, Mean: −59.06%
[2]; single dose, via a single injection or multiple injections
  effect of a single dose injected into lipomas on lipoma-associated pain: significantly alleviates lipoma-associated pain
[3]
  adverse events, kind: mostly injection site edema pain and pruritus
  changes in blood parameters: no clinically significant changes in blood parameters
  serious adverse events: no reported serious adverse events
  tolerability: generally well tolerated
